Article PMC4839570, “Novel Anthra[1,2-c][1,2,5]Thiadiazole-6,11-Diones as Promising Anticancer Lead Compounds: Biological Evaluation, Characterization & Molecular Targets Determination” (PLoS ONE, 2016)
Read-outs that look alike come from different tables or passages of the source.

Assays:
MKN1 = test: JFCR-39 cytotoxicity screen; type: cell-based
SF-539 = test: JFCR-39 cytotoxicity screen; type: cell-based
SR = test: NCI-60 cytotoxicity screen; type: cell-based; conditions: Homo sapiens, Fig 7, read-out: mean log10 of the GI50 values (converted)
MKN74 = test: JFCR-39 cytotoxicity screen; type: cell-based
KM-12 = test: JFCR-39 cytotoxicity screen; type: cell-based
RPMI-8226 = test: NCI-60 cytotoxicity screen; type: cell-based
NCI-H322M = test: NCI-60 cytotoxicity screen; type: cell-based
UACC-62 = test: NCI-60 cytotoxicity screen; type: cell-based
KM12 = test: NCI-60 cytotoxicity screen; type: cell-based
NCI-H23 = test: JFCR-39 cytotoxicity screen; type: cell-based
HCT-116 = test: NCI-60 cytotoxicity screen; type: cell-based
DU-145 = test: NCI-60 cytotoxicity screen; type: cell-based
786-0 = test: NCI-60 cytotoxicity screen; type: cell-based
OVCAR-3 = test: cells; conditions: Homo sapiens, OVCAR-3, read-out: mean log10 of the GI50 values (converted)
[1] = tested on: NF-κB p65 subunit in OVCAR-3 cells; test: Western blotting of nuclear and cytosolic fractions; type: cell-based, human; conditions: OVCAR-3 nuclear fraction
Procedure: Treated cells were fractionated into nuclear and cytosolic fractions using the Nuclear/Cytosol fractionation kit (BioVision), separated by electrophoresis in SDS-PAGE gels and transferred to Amersham Hybond-P PVDF Membranes. Membranes were probed with either anti-NF-κB p65 rabbit monoclonal primary antibody [E379] Abcam # ab32536, anti-TATA binding protein (TBP) mouse antibody (1TBP18), or anti-beta Tubulin rabbit antibody [NB600-936]. After washing, membranes were incubated with either goat anti-rabbit IgG H&L (HRP) (ab6721), or rabbit anti-mouse IgG H&L (HRP) (ab6728) secondary antibodies. Membranes were developed using the Immobilon Western chemiluminescent HRP substrate kit. Protein bands were normalized to either the beta Tubulin or TBP bands and quantified using ImageJ software.

TK-10 = test: NCI-60 cytotoxicity screen; type: cell-based
HCC2998 = test: JFCR-39 cytotoxicity screen; type: cell-based
MDA-MB-435 = test: NCI-60 cytotoxicity screen; type: cell-based
OVCAR-5 = test: JFCR-39 cytotoxicity screen; type: cell-based
SNB-78 = test: JFCR-39 cytotoxicity screen; type: cell-based
DMS114 = test: JFCR-39 cytotoxicity screen; type: cell-based
SK-MEL-5 = test: NCI-60 cytotoxicity screen; type: cell-based
HCC-2998 = test: NCI-60 cytotoxicity screen; type: cell-based
SNB-75 = test: NCI-60 cytotoxicity screen; type: cell-based
HT29 = test: NCI-60 cytotoxicity screen; type: cell-based
OVCAR-8 = test: JFCR-39 cytotoxicity screen; type: cell-based
A549/ATCC = test: NCI-60 cytotoxicity screen; type: cell-based
SN12C = test: NCI-60 cytotoxicity screen; type: cell-based
HOP-62 = test: NCI-60 cytotoxicity screen; type: cell-based
[2] = Homo sapiens, read-out: LC50 (the source's name)
[3] = Homo sapiens, Fig 7, read-out: mean log10 of the GI50 values (converted)
[4] = Homo sapiens, five-dose, read-out: GI50
[5] = Homo sapiens, five-dose, read-out: LC50 (the source's name)

Work on O=C1c2ccccc2C(=O)c2c1ccc1nsnc21 [NSC745885, anthra[1,2-c][1,2,5]thiadiazole-6,11-dione] yielded a TGI (MKN1) of 1.5 µM, a GI50 (MKN1; Homo sapiens, MKN-1) of 0.47 µM and a CC50 (MKN1; Homo sapiens, MKN-1, read-out: LC50 (the source's name)) of 4.3 µM. It also gave a TGI (SF-539) of 3.6 µM, a GI50 (SF-539; Homo sapiens) of 1.9 µM and a CC50 (SF-539; [2]) of 6.6 µM. For the same compound, the GI50 (SR) was 6.92 µM, the TGI (MKN74) was 4.7 µM and the GI50 (MKN74; Homo sapiens, MKN-74) was 1.8 µM. It also gave a CC50 (MKN74; Homo sapiens, MKN-74, read-out: LC50 (the source's name)) greater than 100 µM, a TGI (KM-12) of 5.4 µM and a GI50 (KM-12; Homo sapiens, KM12) of 2.3 µM. It also gave a CC50 (KM-12; Homo sapiens, KM12, read-out: LC50 (the source's name)) of 25 µM, a GI50 (RPMI-8226; [3]) of 1.35 µM and a GI50 (RPMI-8226; [4]) of 1.18 µM. For the same compound, the CC50 (RPMI-8226; [5]) was greater than 100 µM, the TGI (RPMI-8226; five-dose) was 3.46 µM and the GI50 (NCI-H322M; [3]) was 36.3 µM. The GI50 (NCI-H322M; [4]) was 17.4 µM, the CC50 (NCI-H322M; [5]) was greater than 100 µM and the TGI (NCI-H322M; five-dose) was 47.8 µM. It also gave a GI50 (UACC-62; [3]) of 1.82 µM, a GI50 (UACC-62; [4]) of 1.45 µM and a CC50 (UACC-62; [5]) of 5.79 µM. For the same compound, the TGI (UACC-62; five-dose) was 2.90 µM, the GI50 (KM12; [3]) was 4.68 µM and the GI50 (KM12; [4]) was 1.96 µM. The CC50 (KM12; [5]) was 59.7 µM, the TGI (KM12; five-dose) was 5.54 µM and the TGI (NCI-H23) was 2.9 µM. For the same compound, the GI50 (NCI-H23; Homo sapiens) was 1.1 µM, the CC50 (NCI-H23; [2]) was 8 µM and the GI50 (HCT-116; [3]) was 2.34 µM. It also gave a GI50 (HCT-116; [4]) of 1.93 µM, a CC50 (HCT-116; [5]) greater than 100 µM and a TGI (HCT-116; five-dose) of 5.40 µM. For the same compound, the GI50 (DU-145; [3]) was 3.55 µM, the GI50 (DU-145; [4]) was 1.67 µM and the CC50 (DU-145; [5]) was 6.27 µM. The TGI (DU-145; five-dose) was 3.24 µM, the TGI (786-0; 786–0, five-dose) was 19.3 µM and the GI50 (786-0; Homo sapiens, 786-0, Fig 7, read-out: mean log10 of the GI50 values (converted)) was 4.9 µM. For the same compound, the GI50 (786-0; Homo sapiens, 786–0, five-dose, read-out: GI50) was 6.17 µM, the CC50 (786-0; Homo sapiens, 786–0, five-dose, read-out: LC50 (the source's name)) was 50.4 µM and the GI50 (OVCAR-3) was 1.35 µM. For the same compound, the “dose of almost complete inhibition of nuclear NF-κB p65 expression” value [1] was 2.4 µM, the GI50 (TK-10; [3]) was 10 µM and the GI50 (TK-10; [4]) was 2.85 µM. For the same compound, the CC50 (TK-10; [5]) was 50.4 µM, the TGI (TK-10; five-dose) was 10.9 µM and the TGI (HCC2998) was 3.9 µM. For the same compound, the GI50 (HCC2998; Homo sapiens, HCC 2998) was 2.1 µM, the CC50 (HCC2998; Homo sapiens, HCC 2998, read-out: LC50 (the source's name)) was 7.5 µM and the GI50 (MDA-MB-435; [3]) was 1.91 µM. For the same compound, the GI50 (MDA-MB-435; [4]) was 1.91 µM, the CC50 (MDA-MB-435; [5]) was 5.76 µM and the TGI (MDA-MB-435; five-dose) was 3.31 µM. For the same compound, the TGI (OVCAR-5) was 3.4 µM, the GI50 (OVCAR-5; Homo sapiens) was 1.9 µM and the CC50 (OVCAR-5; [2]) was 6 µM. For the same compound, the TGI (SNB-78) was 3.4 µM, the GI50 (SNB-78; Homo sapiens) was 1.7 µM and the CC50 (SNB-78; [2]) was 6.9 µM. For the same compound, the TGI (DMS114) was 1.8 µM, the GI50 (DMS114; Homo sapiens, DMS-114) was 0.5 µM and the CC50 (DMS114; Homo sapiens, DMS-114, read-out: LC50 (the source's name)) was 5 µM. The GI50 (SK-MEL-5; [3]) was 1.35 µM, the GI50 (SK-MEL-5; [4]) was 1.58 µM and the CC50 (SK-MEL-5; [5]) was 5.41 µM. For the same compound, the TGI (SK-MEL-5; five-dose) was 2.92 µM, the GI50 (HCC-2998; [3]) was 5.89 µM and the LC50 (concentration causing 50% net cell kill) (HCC-2998; Homo sapiens, five-dose) was 66.6 µM. The GI50 (HCC-2998; [4]) was 16.4 µM, the TGI (HCC-2998; five-dose) was 33.1 µM and the GI50 (SNB-75; [3]) was 1.7 µM. It also gave a GI50 (SNB-75; [4]) of 2.03 µM, a CC50 (SNB-75; [5]) of 18.6 µM and a TGI (SNB-75; five-dose) of 5.20 µM. For the same compound, the GI50 (HT29; Homo sapiens, HT-29, Fig 7, read-out: mean log10 of the GI50 values (converted)) was 6.03 µM, the GI50 (HT29; Homo sapiens, HT-29, five-dose, read-out: GI50) was 13.4 µM and the CC50 (HT29; Homo sapiens, HT-29, five-dose, read-out: LC50 (the source's name)) was greater than 100 µM. The TGI (HT29; five-dose) was 50.4 µM, the TGI (OVCAR-8) was 4.0 µM and the GI50 (OVCAR-8; Homo sapiens) was 1.4 µM. It also gave a CC50 (OVCAR-8; [2]) of 18 µM, a GI50 (A549/ATCC; [3]) of 5.75 µM and a GI50 (A549/ATCC; [4]) of 14.7 µM. The CC50 (A549/ATCC; [5]) was 91 µM, the TGI (A549/ATCC; five-dose) was 36.6 µM and the GI50 (SN12C; [3]) was 1.78 µM. It also gave a GI50 (SN12C; [4]) of 1.33 µM, a CC50 (SN12C; [5]) of 7.56 µM and a TGI (SN12C; five-dose) of 3.17 µM. The GI50 (HOP-62; [3]) was 2.14 µM, the GI50 (HOP-62; [4]) was 1.28 µM and the CC50 (HOP-62; [5]) was 8.53 µM. It also gave an inhibition at 10 µM (HOP-62; Homo sapiens, single dose 10 μM, read-out: growth inhibition) of 100% and a TGI (HOP-62; five-dose) of 3.31 µM.
